The assay deals with T1, human PAR4 (Homo sapiens, UniProt Q96RI0).
T1 construct: expressed in transfected cells; host or cells: HEK293 PAR4 Clone 1.2A (BMS Arctic ID 383940)
T1 sequence (Q96RI0 18-385): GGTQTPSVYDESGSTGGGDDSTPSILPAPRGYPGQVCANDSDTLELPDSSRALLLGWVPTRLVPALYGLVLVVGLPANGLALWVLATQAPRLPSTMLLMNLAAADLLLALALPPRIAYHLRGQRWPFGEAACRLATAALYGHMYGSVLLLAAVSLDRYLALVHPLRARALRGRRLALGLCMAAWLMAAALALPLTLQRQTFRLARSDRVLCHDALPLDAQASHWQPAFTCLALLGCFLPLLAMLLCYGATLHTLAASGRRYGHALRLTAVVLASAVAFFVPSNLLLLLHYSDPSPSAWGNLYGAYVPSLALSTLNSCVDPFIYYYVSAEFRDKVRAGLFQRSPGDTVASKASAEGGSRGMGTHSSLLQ
Description: PAR4 FLIPR assay: antagonism of agonist-peptide-induced calcium mobilization in PAR4-expressing HEK293 cells. It counts as cell-based. The note with it: H-Ala-Phe(4-F)-[…]NH2-induced intracellular calcium mobilization, 11-point curves. In general terms: A change in cytosolic calcium serves as a functional read-out for many receptors and channels.

18 molecules from patent US12060347B2 (BRISTOL-MYERS SQUIBB COMPANY, priority 2016, dated 2024) can be followed below.

As usually defined, the IC50 is the point on the concentration scale where inhibition reaches its midpoint.

In the case of `COc1cnc2c(-c3nc4cc(F)c(O[C@@H](C)[C@@H](C)OC(=O)Nc5ccc(OCCO)nc5)nc4s3)cc(C)cc2n1` [Example 725, (2R,3S)-3-((6-fluoro-2-(2-methoxy-7-methylquinoxalin-5-yl)thiazolo[5,4-b]pyridin-5-yl)oxy)butan-2-yl (6-(2-hydroxyethoxy)pyridin-3-yl)carbamate], the half-inhibitory concentration (IC50) is 0.8 nM.
In the case of `COc1cnc2c(-c3nc4cc(F)c(O[C@@H](C)[C@@H](C)OC(=O)Nc5ccc(OCC(F)(F)CO)nc5)nc4s3)cc(C)cc2n1` [Example 726, (2R,3S)-3-((6-fluoro-2-(2-methoxy-7-methylquinoxalin-5-yl)thiazolo[5,4-b]pyridin-5-yl)oxy)butan-2-yl (6-(2,2-difluoro-3-hydroxypropoxy)pyridin-3-yl)carbamate], the IC50 is 1.2 nM.
As to `COc1cnc2c(-c3nc4cc(F)c(O[C@@H](C)[C@@H](C)OC(=O)Nc5ccnc(OCCC(C)(C)O)c5)nc4s3)cc(C)cc2n1` [Example 727, (2R,3S)-3-((6-fluoro-2-(2-methoxy-7-methylquinoxalin-5-yl)thiazolo[5,4-b]pyridin-5-yl)oxy)butan-2-yl (2-(3-hydroxy-3-methylbutoxy)pyridin-4-yl)carbamate], the IC50 was 1.7 nM.
The same measure for `COc1cnc2c(-c3nc4cc(F)c(O[C@@H](C)[C@@H](C)OC(=O)Nc5cnc(OC[C@H](C)O)nc5)nc4s3)cc(C)cc2n1` [Example 728, (2R,3S)-3-((6-fluoro-2-(2-methoxy-7-methylquinoxalin-5-yl)thiazolo[5,4-b]pyridin-5-yl)oxy)butan-2-yl (2-((S)-2-hydroxypropoxy)pyrimidin-5-yl)carbamate]: 2.4 nM; for `COc1cnc2c(-c3nc4cc(F)c(O[C@@H](C)[C@@H](C)OC(=O)Nc5cnc(OC[C@@H](C)O)nc5)nc4s3)cc(C)cc2n1` [Example 729, (2R,3S)-3-((6-fluoro-2-(2-methoxy-7-methylquinoxalin-5-yl)thiazolo[5,4-b]pyridin-5-yl)oxy)butan-2-yl (2-((R)-2-hydroxypropoxy)pyrimidin-5-yl)carbamate]: 2.8 nM; for `COc1cnc2c(-c3nc4cc(F)c(O[C@@H](C)[C@@H](C)OC(=O)Nc5cnc(OCCC(C)(C)O)nc5)nc4s3)cc(C)cc2n1` [Example 730, (2R,3S)-3-((6-fluoro-2-(2-methoxy-7-methylquinoxalin-5-yl)thiazolo[5,4-b]pyridin-5-yl)oxy)butan-2-yl (2-(3-hydroxy-3-methylbutoxy)pyrimidin-5-yl)carbamate]: 13 nM.
For the molecule `COc1cnc2c(-c3nc4cc(F)c(O[C@@H](C)[C@@H](C)OC(=O)Nc5cnc(C)nc5)nc4s3)cc(C)cc2n1` [Example 731, (2R,3S)-3-((6-fluoro-2-(2-methoxy-7-methylquinoxalin-5-yl)thiazolo[5,4-b]pyridin-5-yl)oxy)butan-2-yl (2-methylpyrimidin-5-yl)carbamate], the IC50 was 0.9 nM.
On to `COc1cnc2c(-c3nc4c(C)cc(OC[C@@H](C)OC(=O)Nc5cccnc5)nc4s3)cc(C)cc2n1` [Example 733, (R)-1-((2-(2-methoxy-7-methylquinoxalin-5-yl)-7-methylthiazolo[5,4-b]pyridin-5-yl)oxy)propan-2-yl pyridin-3-ylcarbamate], for which the 50% inhibitory concentration (IC50) stood at 1.1 nM.
With `COc1cnc2c(-c3nc4c(C)cc(OC[C@@H](C)OC(=O)Nc5cnc(F)c(C)c5)nc4s3)cc(C)cc2n1` [Example 734, (R)-1-((2-(2-methoxy-7-methylquinoxalin-5-yl)-7-methylthiazolo[5,4-b]pyridin-5-yl)oxy) propan-2-yl (6-fluoro-5-methylpyridin-3-yl)carbamate] the figure was 1 nM; with `COc1cnc2c(-c3nc4c(C)cc(OC[C@@H](C)OC(=O)Nc5cncc(C#N)c5)nc4s3)cc(C)cc2n1` [Example 735, (R)-1-((2-(2-methoxy-7-methylquinoxalin-5-yl)-7-methylthiazolo[5,4-b]pyridin-5-yl)oxy) propan-2-yl (5-cyanopyridin-3-yl)carbamate], 1.1 nM.
For `COc1cnc2c(-c3nc4c(C)cc(OC[C@@H](C)OC(=O)Nc5cnc(Cl)nc5)nc4s3)cc(C)cc2n1` [Example 736, (R)-1-((2-(2-methoxy-7-methylquinoxalin-5-yl)-7-methylthiazolo[5,4-b]pyridin-5-yl)oxy) propan-2-yl (2-chloropyrimidin-5-yl)carbamate], the IC50 stood at 5.3 nM.
With `COc1cnc2c(-c3nc4c(C)cc(OC[C@@H](C)OC(=O)Nc5cnc(C)nc5)nc4s3)cc(C)cc2n1` [Example 737, (R)-1-((2-(2-methoxy-7-methylquinoxalin-5-yl)-7-methylthiazolo[5,4-b]pyridin-5-yl)oxy) propan-2-yl (2-methylpyrimidin-5-yl)carbamate] the figure was 8.1 nM; with `COc1cnc2c(-c3nc4c(C)cc(OC[C@@H](C)OC(=O)Nc5cnc(OC)nc5)nc4s3)cc(C)cc2n1` [Example 738, (R)-1-((2-(2-methoxy-7-methylquinoxalin-5-yl)-7-methylthiazolo[5,4-b]pyridin-5-yl)oxy) propan-2-yl (2-methoxypyrimidin-5-yl)carbamate], 10 nM.
`COc1cnc2c(-c3nc4cc(F)c(OC[C@@H](C)OC(=O)Nc5ccc(C(=O)NCC(C)(C)O)nc5)nc4s3)cc(C)cc2n1` [Example 741, (R)-1-((6-fluoro-2-(2-methoxy-7-methylquinoxalin-5-yl)thiazolo[5,4-b]pyridin-5-yl)oxy) propan-2-yl (6-((2-hydroxy-2-methylpropyl)carbamoyl)pyridin-3-yl)carbamate]: the IC50 is 2.1 nM.
As to `COc1cnc2c(-c3nc4cc(F)c(OC[C@@H](C)OC(=O)Nc5ccc(C(=O)NC[C@@H](C)O)nc5)nc4s3)cc(C)cc2n1` [Example 747, (R)-1-((6-fluoro-2-(2-methoxy-7-methylquinoxalin-5-yl)thiazolo[5,4-b]pyridin-5-yl)oxy) propan-2-yl (6-(((R)-2-hydroxypropyl)carbamoyl)pyridin-3-yl)carbamate], the half-inhibitory concentration (IC50) was found to be 2.4 nM.
On to `COc1cnc2c(-c3nc4cc(F)c(OC[C@@H](C)OC(=O)Nc5ccc(C(=O)NC[C@H](C)O)nc5)nc4s3)cc(C)cc2n1` [Example 748, (R)-1-((6-fluoro-2-(2-methoxy-7-methylquinoxalin-5-yl)thiazolo[5,4-b]pyridin-5-yl)oxy) propan-2-yl (6-(((S)-2-hydroxypropyl)carbamoyl)pyridin-3-yl)carbamate], for which the IC50 worked out at 2.9 nM.
The same measure for `COc1cnc2c(-c3nc4cc(F)c(OC[C@@H](C)OC(=O)Nc5cnc(C(N)=O)nc5)nc4s3)cc(C)cc2n1` [Example 749, (R)-1-((6-fluoro-2-(2-methoxy-7-methylquinoxalin-5-yl)thiazolo[5,4-b]pyridin-5-yl)oxy) propan-2-yl (2-carbamoylpyrimidin-5-yl)carbamate]: 4.3 nM; for `COc1cnc2c(-c3nc4cc(F)c(O[C@@H](C)[C@@H](C)OC(=O)Nc5ccc(C(=O)NC[C@H](C)O)nc5)nc4s3)cc(C)cc2n1` [Example 750, (2R,3S)-3-((6-fluoro-2-(2-methoxy-7-methylquinoxalin-5-yl)thiazolo[5,4-b]pyridin-5-yl)oxy)butan-2-yl (6-(((S)-2-hydroxypropyl)carbamoyl)pyridin-3-yl)carbamate]: 1.1 nM.
